Structures can show the parent of a compound that is named as a salt.
Assays:
[1] = tested on: thrombin-induced platelet aggregation; assay: Inhibitory effect on thrombin-induced platelet aggregation in vitro, Table 2; format: cell-based, human (healthy person)
Procedure: Blood was drawn from the cubital vein of a healthy person with a care taken to avoid congestion. […] 0.1 ml of a solution of 5'-GMP sodium salt in each of the concentrations shown in Table 1 below was added to 0.7 ml of PRP, and then each of the various platelet aggregation inducing agents shown in Table 1 was added. Changes in absorbance were measured by an aggregometer (made by Evans Company), and the rate of platelet aggregation inhibition was calculated from the following equation.
The same experiment as in (1) above was carried out except that […] of thrombin was used as a platelet aggregation inducing agent.

[2] = tested on: platelet aggregation induced by arachidonic acid; assay: Inhibition of arachidonic acid-induced platelet aggregation in vitro (method of Born, human PRP, aggregometer); format: cell-based, human (healthy person); settings: arachidonic acid 55.5 γ/ml, read-out: Rate of inhibition (%)
Procedure: (§1) (1) Inhibitory effect of GMP on platelet aggregation induced by various platelet aggregation inducing substances:
(§2) The inhibitory effect was measured by the method of Born (J. Physiol., vol. 168, p. 178, 1963).
(§3) Blood was drawn from the cubital vein of a healthy person with a care taken to avoid congestion. One part by volume of a 3.8% sodium citrate solution was added to 9 parts by volume of the blood, and the mixture was centrifuged at 1,000 rpm for 10 minutes at room temperature to obtain platelet-rich plasma (PRP). 0.1 ml of a solution of 5'-GMP sodium salt in each of the concentrations shown in Table 1 below was added to 0.7 ml of PRP, and then each of the various platelet aggregation inducing agents shown in Table 1 was added. Changes in absorbance were measured by an aggregometer (made by Evans Company), and the rate of platelet aggregation inhibition was calculated from the following equation.

[3] = tested on: platelet aggregation induced by collagen; assay: Inhibition of collagen-induced platelet aggregation in vitro (method of Born, human PRP, aggregometer); format: cell-based, human (healthy person); settings: collagen 5.5 γ/ml, read-out: Rate of inhibition (%)
Procedure: as §1, §2, §3

[4] = tested on: platelet aggregation induced by 5'-ADP; assay: Inhibition of 5'-ADP-induced platelet aggregation in vitro (method of Born, human PRP, aggregometer); format: cell-based, human (healthy person); settings: 5'-ADP 55.5 γ/ml, read-out: Rate of inhibition (%)
Procedure: as §1, §2, §3

[5] = tested on: platelet aggregation induced by norepinephrine; assay: Inhibition of norepinephrine-induced platelet aggregation in vitro (method of Born, human PRP, aggregometer); format: cell-based, human (healthy person); settings: norepinephrine 55.5 γ/ml, sample 1.00 mg/ml, read-out: Rate of inhibition (%)
Procedure: as §1, §2, §3

[6] = tested on: platelet aggregation induced by thrombin; assay: Inhibition of thrombin-induced platelet aggregation in vitro, Table 1 (method of Born, human PRP, aggregometer); format: cell-based, human (healthy person)
Procedure: as §1, §2, §3

[7] = tested on: platelet aggregation (thrombin-induced); assay: Duration of the platelet aggregation inhibiting effect in vivo in rabbits (thrombin added to PRP); settings: rabbit
Procedure: (3) Inhibitory effect on platelet aggregation in vivo:
(1) Duration of the aggregation inhibiting effect.
(§4) 5'-GMP sodium salt was administered to rabbits intravenously in a dose of 50 mg/kg or orally in a dose of 1 g/kg. After a predetermined period of time (30 seconds to 4 minutes in the case of intravenous injection, and 1 to 5 hours in oral administration), blood was drawn from the animals. One part by volume of a 3.8% solution of sodium citrate was added to 9 parts by volume of the blood, and the mixture was centrifuged at 1,000 rpm at room temperature for 10 minutes to obtain platelet-rich plasma (PRP). 0.1 ml of a thrombin solution (0.75 u/ml) was added to 0.7 ml of PRP, and then changes in absorbance were measured by an aggregometer (made by Evans Company).

platelet aggregation [8] = assay: Relation between dose of GMP and aggregation inhibiting effect in rabbits in vivo; settings: rabbit, one hour after administration
Procedure: as §4
(2) Relation between the dose of GMP and the aggregation inhibiting effect.
Using rabbits, the dose response of the platelet aggregation inhibiting activity of 5'-GMP (sodium salt) in vivo was examined. 5'-GMP (sodium salt) was orally administered to the rabbits, and blood was drawn from the animals one hour after the administration. PRP was prepared in the same way as in section (1) above. The degree of platelet aggregation inhibition was measured by an aggregometer.

[9] = tested on: platelet aggregation (thrombin-induced); assay: Inhibitory effect on platelet aggregation in humans in vivo (thrombin added to PRP); design: species or system human (healthy persons); settings: for Rate of platelet aggregation inhibition (%): five healthy persons, oral one gram
Procedure: (4) Inhibitory effect on platelet aggregation in humans in vivo:
One gram of 5'-GMP (sodium salt) was administered orally to each of five healthy persons, and blood was drawn from them after a predetermined period of time. One part by volume of a 3.8% aqueous solution of sodium citrate was added to 9 parts by volume of the blood, and the mixture was centrifuged at room temperature for 10 minutes at 1,000 rpm to obtain platelet-rich plasma (PRP). 0.1 ml of a thrombin solution (0.75 u/ml) was added to 0.7 ml of PRP, and changes in absorbance were measured by an aggregometer (made by Evans Company).

[10] = Acute toxicity in mice (Litchfield-Wilcoxon); design: species or system mouse (ddY-strain); settings: mouse, in vivo, ddY mice, parentheses: 95% reliability limits
Procedure: The acute toxicity of the compound of formula (I) in accordance with this invention was examined.
The test compound (guanosine 5'-monophosphate sodium salt) was dissolved in physiological saline, and the solution was administered to ddY-strain mice (body weight 20 to 25 g) intravenously or orally.
The parenthesized figures show 95% reliability limits.

[11] = tested on: platelet aggregation induced by various platelet aggregation inducing substances; assay: Inhibition of platelet aggregation induced by various platelet aggregation inducing substances; format: cell-based, human (healthy person); settings: Table 1
Procedure: as §1, §2, §3

[12] = tested on: thrombin-induced platelet aggregation; assay: Thrombin-induced platelet aggregation (inventors' test of 5'-GDP); format: cell-based; settings: tests conducted by the present inventors
[13] = tested on: 5'-ADP-induced platelet aggregation; settings: at high concentrations; cited from earlier work
platelet aggregation [14] = settings: cited from earlier work

Nc1nc2c(ncn2[C@@H]2O[C@H](CO)[C@@H](OP(=O)(O)O)[C@H]2O)c(=O)[nH]1 [3'-GMP (sodium salt), Guanosine 3'-monophosphate]
inhibition at 2000 µg/mL ([1]; Homo sapiens, Platelet, thrombin 0.25 μ/ml, compound 2.0 mg/ml, read-out: Inhibition rate (%)): 87% | Inhibition rate (%) ([1]; thrombin 0.25 μ/ml, compound 2.0 mg/ml): 80%

Nc1nc2c(ncn2[C@@H]2O[C@H](COP(=O)([O-])[O-])[C@@H](O)[C@H]2O)c(=O)[nH]1.[Na+].[Na+] [5'-GMP (sodium salt), guanosine 5'-monophosphate sodium salt]
inhibition at 10 µg/mL (stock) ([2]; sample 0.01 mg/ml): 22% | inhibition at 1000 µg/mL (stock) ([2]; sample 1.00 mg/ml): 40% | inhibition at 100 µg/mL (stock) ([3]; sample 0.10 mg/ml): 10% | inhibition at 1000 µg/mL (stock) ([3]; sample 1.00 mg/ml): 10% | inhibition at 100 µg/mL (stock) ([4]; sample 0.10 mg/ml): 3% | inhibition at 1000 µg/mL (stock) ([4]; sample 1.00 mg/ml): 10% | inhibition at 1000 µg/mL (stock) [5]: 8% | inhibition at 100 µg/mL ([6]; Homo sapiens, Platelet, read-out: Rate of inhibition (%)): 66% | inhibition at 1000 µg/mL (stock) ([6]; Homo sapiens, Platelet, thrombin 0.5 μ/ml, sample 1.0 mg/ml, read-out: Rate of inhibition (%)): 80% | inhibition at 10000 µg/mL (stock) ([6]; Homo sapiens, Platelet, thrombin 0.5 μ/ml, sample 10.0 mg/ml, read-out: Rate of inhibition (%)): 89% | inhibition at 500 µg/mL ([1]; Homo sapiens, Platelet, read-out: Inhibition rate (%), thrombin 0.25 μ/ml, compound 0.5 mg/ml): 75% | inhibition at 1000 µg/mL ([1]; Homo sapiens, Platelet, thrombin 0.25 μ/ml, compound 1.0 mg/ml, read-out: Inhibition rate (%)): 81% | Rate of platelet aggregation inhibition (%) ([7]; iv 50 mg/kg, 30 seconds): 94% | Rate of platelet aggregation inhibition (%) ([7]; iv 50 mg/kg, 60 seconds): 93% | Rate of platelet aggregation inhibition (%) ([7]; iv 50 mg/kg, 90 seconds): 59% | Rate of platelet aggregation inhibition (%) ([7]; iv 50 mg/kg, 120 seconds): 60% | Rate of platelet aggregation inhibition (%) ([7]; iv 50 mg/kg, 180 seconds): 62% | Rate of platelet aggregation inhibition (%) ([7]; iv 50 mg/kg, 240 seconds): 27% | Rate of platelet aggregation inhibition (%) ([7]; oral 1 g/kg, 1 hour): 95% | Rate of platelet aggregation inhibition (%) ([7]; oral 1 g/kg, 2 hours): 95% | Rate of platelet aggregation inhibition (%) ([7]; oral 1 g/kg, 3 hours): 93% | Rate of platelet aggregation inhibition (%) ([7]; oral 1 g/kg, 4 hours): 93% | Rate of platelet aggregation inhibition (%) ([7]; oral 1 g/kg, 5 hours): 83% | Rate of platelet aggregation inhibition (%) (platelet aggregation [8]; oral 0.5 g/kg): 38.8% | Rate of platelet aggregation inhibition (%) (platelet aggregation [8]; oral 1.0 g/kg): 61.0% | Rate of platelet aggregation inhibition (%) (platelet aggregation [8]; oral 1.5 g/kg): 75.2% | Rate of platelet aggregation inhibition (%) (platelet aggregation [8]; oral 2.0 g/kg): 80.3% | Rate of platelet aggregation inhibition (%) (platelet aggregation [8]; oral 3.0 g/kg): 100% | Rate of platelet aggregation inhibition (%) ([9]; 1.5 hours): 63% | Rate of platelet aggregation inhibition (%) ([9]; 3 hours): 75% | Rate of platelet aggregation inhibition (%) ([9]; 4.5 hours): 62% | LD50 at 72 h ([10]; iv): 3350 mg/kg | LD50 at 72 h ([10]; po): 14800 mg/kg

Nc1nc2c(ncn2[C@@H]2O[C@H](COP(=O)(O)O)[C@@H](O)[C@H]2O)c(=O)[nH]1 [5'-GMP, Guanosine 5'-monophosphate]
effect against thrombin-induced aggregation ([6]; Table 1): especially effective against thrombin-induced aggregation | duration of effect ([7]; oral administration): ≥ 5 h | inhibition of platelet aggregation ([7]; oral administration): marked inhibition of platelet aggregation | duration of effect ([9]; humans, oral administration): ≥ 4.5 h | inhibitory effect on aggregation inducing agents [11]: shows an inhibitory effect on all of the aggregation inducing agents tested

Nc1nc2c(ncn2[C@@H]2O[C@H](COP(=O)(O)OP(=O)(O)O)[C@@H](O)[C@H]2O)c(=O)[nH]1 [5'-GDP, guanosine 5'-diphosphate]
inhibitory action on thrombin-induced platelet aggregation [12]: no inhibitory action on thrombin-induced platelet aggregation | inhibitory action on 5'-ADP-induced platelet aggregation [13]: inhibitory action on 5'-ADP-induced platelet aggregation

Nc1ncnc2c1ncn2[C@@H]1O[C@H](COP(=O)(O)OP(=O)(O)O)[C@@H](O)[C@H]1O [5'-ADP, adenosine 5'-diphosphate]
action on platelet aggregation (platelet aggregation [14]): promoting platelet aggregation

Nc1ncnc2c1ncn2[C@@H]1O[C@H](COP(=O)(O)O)[C@@H](O)[C@H]1O [5'-AMP, adenosine 5'-monophosphate]
action on platelet aggregation (platelet aggregation [14]): weak action of inhibiting platelet aggregation

— patent publication US4621076A, “Pharmaceutical composition useful for inhibiting platelet aggregation” (Meito Sangyo Kabushiki Kaisha, priority 1982, dated 1986)
